# Literature values, collected in patent US20020132320A1, “Glycoconjugate synthesis using a pathway-engineered organism” (priority 2001, published 2002).
# Legend:
# [1] = biological target: E. coli NanA (Escherichia coli, UniProt P0A6L4); conditions: cleavage reaction
# [2] = biological target: Hyaluronan synthase (spHAS) (Streptococcus pyogenes, UniProt P0C0H0)
# [3] = test system: UDP-GalNAc pyrophosphorylase; conditions: substrate of purified UDP-GalNAc pyrophosphorylase
# [4] = biological target: T1, CMP-NeuNAc synthetase (Escherichia coli O18:K1:H7, UniProt P13266); conditions: enzyme purified from E. coli K1; read-out: apparent Km
# T1 construct: host or cells: E. coli K1
# [5] = relative to morphine
smiles,measurement,setting,value
"CC(=O)N[C@H]1[C@H]([C@H](O)[C@H](O)CO)OC(O)(C(=O)O)C[C@@H]1O (stereo partly shown) [NeuNAc, N-acetylneuraminic acid]",Km,[1],4300 µM
"CC(=O)N[C@H]1[C@@H](OP(=O)(O)OP(=O)(O)OC[C@H]2O[C@@H](n3ccc(=O)[nH]c3=O)[C@H](O)[C@@H]2O)O[C@H](CO)[C@@H](O)[C@@H]1O [UDP-GlcNAc, uridine 5′-diphospho-N-acetylglucosamine]",Km,[2],149 ± 3 µM
CC(=O)NC1C(OP(=O)(O)O)OC(CO)C(O)C1O (stereo not shown) [GlcNAc-1-P],Km,[3],1100 µM
"Nc1ccn([C@@H]2O[C@H](COP(=O)(O)OP(=O)(O)OP(=O)(O)O)[C@@H](O)[C@H]2O)c(=O)n1 [CTP, Cytosine 5′-triphosphate]",Km,[4],310 µM
"O=C(O)[C@H]1O[C@H](OP(=O)(O)OP(=O)(O)OC[C@H]2O[C@@H](n3ccc(=O)[nH]c3=O)[C@H](O)[C@@H]2O)[C@H](O)[C@@H](O)[C@@H]1O [UDP-GlcA, uridine 5′-diphosphoglucuronic acid]",Km,[2],40 ± 4 µM
"CC(=O)N[C@H]1C(OP(=O)(O)O)O[C@H](CO)[C@H](O)[C@@H]1O (stereo partly shown) [GalNAc-1-P, N-acetylgalactosamine-1-phosphate]",Km,[3],290 µM
CN1CC[C@]23c4c5ccc(O)c4O[C@H]2[C@@H](O[C@@H]2O[C@H](C(=O)O)[C@@H](O)[C@H](O)[C@H]2O)C=C[C@H]3[C@H]1C5 [morphine-6-O-glucuronide],times more active than morphine,[5],50 times
